Reference: ChEMBL document CHEMBL5380833 (J Med Chem, 2023)
Calls of active or inactive are those of the source. No cut-off for these calls is given here.

Key:
[1] = Toxicity in Balb/c mouse assessed as drug tolerance at 10 mg/kg, ip measured upto 24 hrs by LC-MS/MS analysis; format: organism-based; details: in vivo
[2] = Toxicity in Balb/c mouse assessed as side effects at 5 mg/kg, iv measured upto 24 hrs by LC-MS/MS analysis; format: organism-based; details: in vivo
[3] = AUC (0 to infinity) in Balb/c mouse at 5 mg/kg, iv measured upto 24 hrs by LC-MS/MS analysis; format: ADME, organism-based; design: time < 24 hrs, dose 5 mg/kg, route iv; details: in vivo
[4] = tested on: Jurkat; assay: Effect on CK1alpha expression in human Jurkat cells at 100 nM measured after 8 hrs by proteomics analysis; format: functional, cell-based
[5] = Cmax in Balb/c mouse at 10 mg/kg, ip measured upto 24 hrs by LC-MS/MS analysis; format: ADME, organism-based; design: dose 10 mg/kg, time < 24 hrs, route ip; details: in vivo
[6] = tested on: Jurkat; assay: Effect on GSPT1 expression in human Jurkat cells at 100 nM measured after 8 hrs by proteomics analysis; format: functional, cell-based
[7] = AUC (0 to t) in Balb/c mouse at 10 mg/kg, ip measured upto 24 hrs by LC-MS/MS analysis; format: ADME, organism-based; design: time < 24 hrs, dose 10 mg/kg, route ip; details: in vivo
[8] = Cmax in Balb/c mouse at 5 mg/kg, iv measured upto 24 hrs by LC-MS/MS analysis; format: ADME, organism-based; design: time < 24 hrs, dose 5 mg/kg, route iv; details: in vivo
[9] = MRT last in Balb/c mouse at 10 mg/kg, ip measured upto 24 hrs by LC-MS/MS analysis; format: ADME, organism-based; details: in vivo
[10] = target: T1, Protein cereblon/Tyrosine-protein kinase ITK/TSK (Homo sapiens, UniProt Q08881+Q96SW2); assay: PROTAC activity at CRBN/ITK in human Jurkat cells assessed as maximum degradation at 0.01 to 10 uM by Western blot analysis relative to control; format: cell-based; details: dose 0.01-10 µM
Target sequence in this assay (Q08881 whole entry, looked up): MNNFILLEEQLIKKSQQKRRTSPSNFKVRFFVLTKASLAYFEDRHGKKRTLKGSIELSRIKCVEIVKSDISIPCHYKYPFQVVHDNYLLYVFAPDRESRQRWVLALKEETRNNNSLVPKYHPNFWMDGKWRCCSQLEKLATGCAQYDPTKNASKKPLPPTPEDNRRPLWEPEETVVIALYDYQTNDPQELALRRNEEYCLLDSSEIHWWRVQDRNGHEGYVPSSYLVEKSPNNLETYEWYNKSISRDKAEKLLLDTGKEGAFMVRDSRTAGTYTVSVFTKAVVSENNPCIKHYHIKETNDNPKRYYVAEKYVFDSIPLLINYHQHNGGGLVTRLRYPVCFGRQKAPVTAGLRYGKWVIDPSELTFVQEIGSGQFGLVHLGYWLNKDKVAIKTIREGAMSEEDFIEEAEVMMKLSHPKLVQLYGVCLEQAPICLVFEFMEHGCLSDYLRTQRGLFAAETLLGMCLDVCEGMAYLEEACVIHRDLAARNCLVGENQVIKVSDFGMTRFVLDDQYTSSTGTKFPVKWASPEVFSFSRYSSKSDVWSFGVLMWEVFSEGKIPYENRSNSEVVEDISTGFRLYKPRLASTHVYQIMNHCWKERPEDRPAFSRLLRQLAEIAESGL
Target sequence in this assay (Q96SW2 whole entry, looked up): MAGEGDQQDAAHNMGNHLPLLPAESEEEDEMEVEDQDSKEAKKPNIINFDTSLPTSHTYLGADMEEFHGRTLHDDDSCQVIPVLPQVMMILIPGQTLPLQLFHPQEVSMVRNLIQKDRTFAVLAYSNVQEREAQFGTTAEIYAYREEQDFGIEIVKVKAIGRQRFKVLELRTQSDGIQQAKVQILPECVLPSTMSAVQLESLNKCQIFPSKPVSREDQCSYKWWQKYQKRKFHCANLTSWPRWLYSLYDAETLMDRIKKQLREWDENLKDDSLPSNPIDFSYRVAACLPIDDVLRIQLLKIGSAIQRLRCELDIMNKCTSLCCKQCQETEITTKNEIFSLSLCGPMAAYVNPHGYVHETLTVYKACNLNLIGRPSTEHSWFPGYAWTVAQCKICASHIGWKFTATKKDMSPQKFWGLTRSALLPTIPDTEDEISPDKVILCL

[11] = MRT last in Balb/c mouse at 5 mg/kg, iv measured upto 24 hrs by LC-MS/MS analysis; format: ADME, organism-based; details: Balb/c, in vivo
[12] = Toxicity in Balb/c mouse assessed as drug tolerance at 5 mg/kg, iv measured upto 24 hrs by LC-MS/MS analysis; format: organism-based; details: in vivo
[13] = target: T2, Protein cereblon/Tyrosine-protein kinase ITK/TSK (Mus musculus) (UniProt Q8C7D2+Q03526); assay: In vivo PROTAC activity at CRBN/ITK xenografted in Balb/c mouse spleen assessed as prolongation of ITK degradation at 20 mg/kg, ip measured for 2 to 16 hrs by Western blot analysis; format: functional, organism-based; details: time 2-16 hrs
[14] = target: T1, Protein cereblon/Tyrosine-protein kinase ITK/TSK; assay: PROTAC activity at CRBN/ITK in human Jurkat cells assessed as downregulation of ITK protein by measuring fold change at 100 nM measured after 8 hrs; format: cell-based
Target sequence in this assay (Q08881 whole entry, looked up): as the sequence (Q08881 whole entry, looked up) above
Target sequence in this assay (Q96SW2 whole entry, looked up): as the sequence (Q96SW2 whole entry, looked up) above

[15] = target: T2, Protein cereblon/Tyrosine-protein kinase ITK/TSK (Mus musculus); assay: In vivo PROTAC activity at CRBN/ITK xenografted in Balb/c mouse peripheral blood assessed as prolongation of ITK degradation at 20 mg/kg, ip measured for 2 to 16 hrs by Western blot analysis; format: functional, organism-based; details: time 2-16 hrs
[16] = AUC (0 to infinity) in Balb/c mouse at 10 mg/kg, ip measured upto 24 hrs by LC-MS/MS analysis; format: ADME, organism-based; design: dose 10 mg/kg, time < 24 hrs, route ip; details: in vivo
[17] = target: T1, Protein cereblon/Tyrosine-protein kinase ITK/TSK; assay: PROTAC activity at CRBN/ITK in human Jurkat cells assessed as induction of ITK degradation by Western blot analysis; format: cell-based; details: read-out: EC50
Target sequence in this assay (Q08881 whole entry): as the sequence (Q08881 whole entry, looked up) above
Target sequence in this assay (Q96SW2 whole entry): as the sequence (Q96SW2 whole entry, looked up) above

[18] = Volume of distribution at steady state in Balb/c mouse at 10 mg/kg, ip measured upto 24 hrs by LC-MS/MS analysis; format: ADME, organism-based; details: in vivo
[19] = Toxicity in Balb/c mouse assessed as side effects at 10 mg/kg, ip measured upto 24 hrs by LC-MS/MS analysis; format: organism-based; details: in vivo
[20] = Clearance in Balb/c mouse at 10 mg/kg, ip measured upto 24 hrs by LC-MS/MS analysis; format: ADME, organism-based; details: in vivo
[21] = target: T2, Protein cereblon/Tyrosine-protein kinase ITK/TSK (Mus musculus); assay: PROTAC activity at CRBN/ITK in Balc/c mouse Primary splenic cell assessed as maximum degradation at 0.32 to 5000 nM by immunoblotting analysis relative to control; format: cell-based; details: dose 0.32-5000 nM
[22] = Half life in Balb/c mouse at 5 mg/kg, iv measured upto 24 hrs by LC-MS/MS analysis; format: ADME, organism-based; details: in vivo
[23] = AUC (0 to t) in Balb/c mouse at 5 mg/kg, iv measured upto 24 hrs by LC-MS/MS analysis; format: ADME, organism-based; design: dose 5 mg/kg, time < 24 hrs, route iv; details: in vivo
[24] = target: T2, Protein cereblon/Tyrosine-protein kinase ITK/TSK (Mus musculus); assay: (§1) PROTAC activity at CRBN/ITK in Balc/c mouse Primary splenic cell assessed as ITK degradation by immunoblotting analysis; format: cell-based; details: dose 0.32-5000 nM
[25] = target: T3, Protein cereblon/Tyrosine-protein kinase ITK/TSK (Mus musculus, UniProt Q8C7D2+Q03526); assay: as §1; format: cell-based
T3 sequence (Q8C7D2 whole entry): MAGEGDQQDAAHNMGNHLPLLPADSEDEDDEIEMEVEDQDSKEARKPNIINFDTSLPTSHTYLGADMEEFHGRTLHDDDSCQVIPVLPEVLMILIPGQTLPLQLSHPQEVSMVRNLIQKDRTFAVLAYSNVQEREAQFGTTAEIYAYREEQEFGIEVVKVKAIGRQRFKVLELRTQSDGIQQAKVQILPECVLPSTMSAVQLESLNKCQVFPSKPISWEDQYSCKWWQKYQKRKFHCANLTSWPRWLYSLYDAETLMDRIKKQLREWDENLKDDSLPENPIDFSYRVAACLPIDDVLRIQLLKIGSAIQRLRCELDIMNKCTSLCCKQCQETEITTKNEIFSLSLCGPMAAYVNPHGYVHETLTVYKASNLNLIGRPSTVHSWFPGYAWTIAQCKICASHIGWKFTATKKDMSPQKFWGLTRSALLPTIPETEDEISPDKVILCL
T3 sequence (Q03526 whole entry): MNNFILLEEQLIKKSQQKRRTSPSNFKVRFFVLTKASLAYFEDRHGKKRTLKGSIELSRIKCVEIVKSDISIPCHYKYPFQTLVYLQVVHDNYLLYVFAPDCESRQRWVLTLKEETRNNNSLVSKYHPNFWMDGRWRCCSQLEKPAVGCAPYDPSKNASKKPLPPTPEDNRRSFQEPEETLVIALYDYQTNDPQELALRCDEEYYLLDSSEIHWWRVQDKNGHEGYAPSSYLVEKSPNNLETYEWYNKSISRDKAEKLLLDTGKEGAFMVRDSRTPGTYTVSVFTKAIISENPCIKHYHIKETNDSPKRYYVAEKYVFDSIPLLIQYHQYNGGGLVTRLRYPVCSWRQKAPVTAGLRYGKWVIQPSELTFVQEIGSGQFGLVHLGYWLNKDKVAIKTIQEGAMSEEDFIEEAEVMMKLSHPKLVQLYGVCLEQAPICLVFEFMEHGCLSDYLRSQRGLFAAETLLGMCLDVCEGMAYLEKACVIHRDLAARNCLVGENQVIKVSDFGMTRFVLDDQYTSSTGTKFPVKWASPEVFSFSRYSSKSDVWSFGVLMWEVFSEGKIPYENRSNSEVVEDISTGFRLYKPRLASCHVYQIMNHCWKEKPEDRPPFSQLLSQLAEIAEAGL

[26] = target: T2, Protein cereblon/Tyrosine-protein kinase ITK/TSK (Mus musculus); assay: In vivo PROTAC activity at CRBN/ITK xenografted in Balb/c mouse assessed as reduction in cytokine IL-2 production at 25 mg/kg, ip preincubated for 6 hrs followed by abti-CD3 stimulation and measured after 1.5 hrs by ELISA method relative to control; format: functional, organism-based; design: scale not given: the % may be the effect or the level left; details: time 7.5 hrs
[27] = Bioavailability in Balb/c mouse at 10 mg/kg, ip measured upto 24 hrs by LC-MS/MS analysis; format: ADME, organism-based; details: in vivo
[28] = Half life in Balb/c mouse at 10 mg/kg, ip measured upto 24 hrs by LC-MS/MS analysis; format: ADME, organism-based; details: in vivo
[29] = Volume of distribution at steady state in Balb/c mouse at 5 mg/kg, iv measured upto 24 hrs by LC-MS/MS analysis; format: ADME, organism-based; details: in vivo, read-out: Vdss
[30] = target: Interleukin-2 (Homo sapiens, UniProt P60568); assay: Inhibition of IL-2 in human Jurkat cells pretreated with compound for 4 hrs followed by anti-CD3/CD28 stimulation by ELISA analysis; format: cell-based
[31] = tested on: Jurkat; assay: Effect on IKZF3 expression in human Jurkat cells at 100 nM measured after 8 hrs by proteomics analysis; format: functional, cell-based
[32] = tested on: Jurkat; assay: Effect on IKZF1 expression in human Jurkat cells at 100 nM measured after 8 hrs by proteomics analysis; format: functional, cell-based
[33] = Clearance in Balb/c mouse at 5 mg/kg, iv measured upto 24 hrs by LC-MS/MS analysis; format: ADME, organism-based; details: in vivo

Interleukin-2, sequence (P60568 whole entry): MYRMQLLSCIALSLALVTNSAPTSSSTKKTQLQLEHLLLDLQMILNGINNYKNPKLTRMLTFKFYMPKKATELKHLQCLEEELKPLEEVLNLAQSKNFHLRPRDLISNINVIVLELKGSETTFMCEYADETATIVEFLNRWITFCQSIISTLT

AUC(0-inf) [3]: 15400 ng·h/mL
Cmax [5]: 3420 ng/mL
AUC(0-t) at 24 h [7]: 25900 ng·h/mL
Cmax [8]: 4910 ng/mL
MRT last at 24 h [9]: 5.84 h
Emax [10]: 95%
MRT last at 24 h [11]: 4.42 h
Activity [13]: Active
fold change (FC) [14]: 0.37
Activity [15]: Active
AUC(0-inf) [16]: 27300 ng·h/mL
EC50 [17]: 3.6 nM
Vdss [18]: 3.06 L/kg
CL/F [20]: 6.1 mL/min/kg
Emax [21]: > 99%
half-life [22]: 4.39 h
AUC(0-t) at 24 h [23]: 15100 ng·h/mL
Activity [24]: Dose-Dependent Effect
DC50 [25]: 2.1 nM
Activity [26]: 70%
bioavailability [27]: 88.4%
half-life [28]: 5.75 h
Vd [29]: 2.06 L/kg
EC50 [30]: 35.2 nM
clearance [33]: 5.4 mL/min/kg
SMILES: CC1(C)CCc2c(C(=O)Nc3cnn([C@@H](CCN4CCN(CCC5CCN(c6ccc7c(c6)C(=O)N(C6CCC(=O)NC6=O)C7=O)CC5)CC4)c4ccccc4)c3)n[nH]c2C1.O=C(O)C(F)(F)F (stereo partly drawn)
Activity [1]: Non-Toxic
Activity [2]: Non-Toxic
Activity [4]: inactive
Activity [6]: inactive
Activity [12]: Non-Toxic
Activity [19]: Non-Toxic
Activity [31]: inactive
Activity [32]: inactive
